{
  "source": "patent US20230310399A1",
  "about": "“COMBINATORIAL THERAPEUTIC SYSTEMS AND METHODS THAT INCLUDE SYSTEMIC, CENTRALLY AND PERIPHERALLY ACTING ANALGESICS” (COGNIFISENSE, INC., priority 2020, published 2023)",
  "system": "patient's amount of pain",
  "test": "Potential patient responses to combinatorial therapy: amount of pain over time (FIGS. 5A-5C)",
  "type": "in vivo, patients",
  "conditions": "combinatorial therapeutic system with VRNT; potential individual patient responses",
  "description": "FIGS. 5A-5C illustrate exemplary graphs of potential effects of combinatorial therapeutic systems/methods employing oliceridine and VRNT on a patient's amount of pain over time; and\nThe synergistic effects of the disclosed combinatorial therapeutic systems/methods can be exemplified in a plurality of responses. For example, FIGS. 5A-5C illustrate a combinatorial therapy using oliceridine (as the systemic, centrally and peripherally acting analgesic) and VRNT (as the artificial sensory experience) with different potential patient responses. As many, if not all, patients may experience the synergistic benefits afforded by the disclosed combinatorial therapeutic systems/methods as an average benefit, the individual-specific responses may be different.",
  "note": "“Also recorded” adds a separate entry of the source.",
  "data": [
    {"smiles": "COc1ccsc1CNCC[C@@]1(c2ccccn2)CCOC2(CCCC2)C1", "note": "[oliceridine]", "values": [
      {"measurement": "patient's amount of pain over time", "value": "constant or linear decrease in pain over time; also recorded: cyclical decrease and increase in pain levels over time with an overall decreasing pain level; also recorded: stepwise reduction in pain levels"}
    ]}
  ]
}
